One block for each molecule: values may come before it.
Columns and labels:
[1] = in vivo; cited from earlier work
[2] = within one hour of intranasal delivery (Leng and Ludwig 2016); cited from earlier work
[3] = OT in CSF and plasma by ELISA after intranasal administration; assay type: in vivo, Swiss-Webster mice; conditions: 2 hours after intranasal administration, 50 ug OT
BEND3 cells = assay: BBB transport across BEND3 cell barrier in Ussing chamber; assay type: in vitro ADME, mouse; conditions: 1, 2, 3 and 4 hours
Excerpt: To generate a cellular model of the BBB, BEND3 cells were obtained from American Type Culture Collection (ATCC: 2299). BEND3 cells are endothelial cells that form tight barriers through the formation of transcellular tight junctions (Montesano et al. 1990; Sikorski et al. 1993; Williams et al. 1988), and these barriers mimic the barrier properties of the BBB (He et al. 2010; Watanabe et al. 2013). Their endothelial nature has been confirmed by the expression of von Willebrand factor and the uptake of fluorescently labeled low density lipoprotein. BEND3 cells were cultured in Dulbecco's Modified Eagle Medium (DMEM) supplemented with 15% FBS and 1% (100 U/ml Penicillin and 100 μg/ml Streptomycin). […]
To study the transport of nanoparticle formulations across the BEND3 BBB model barrier, a complete Ussing chamber system with a multichannel voltage-current clamp and the EasyMount Ussing chambers (Model VCC MC8; P2300; Physiologic Instruments Inc.; San Diego, Calif.) was used. […] To subtract the background resistance, a blank cell-culture insert was placed onto the slider and used to compensate for any fluid or blank membrane resistance by dialing off any reading to zero. […] Before the start of the experiment, all cell barrier preparations were evaluated for resistance properties and current flow using the acquire and analyze software. […]

[4] = test system: macrophage (RAW 246.7) cell line; assay: Cytotoxicity by MTT assay; assay type: cell-based; conditions: relative to negative control
Excerpt: (See Examples 10 through 16 hereinbelow). As confirmed in past research, the nanoparticle formulations have shown to be both safe and non-toxic in non-human primates. In primates, all parameters related to liver toxicity (such as SGOT, SGPT) and kidney toxicity (such as serum creatinine, […]) were normal after repeated nanoparticulate administrations when compared to the control group. […] For confirmation of a potential innate inflammatory response, nitric oxide assays are an important tool. For the assay, dendritic cells are plated in a well plate and exposed to the formulation. After 16 hours, using reagents, a stronger color change indicates a higher production of nitric oxide by these antigen-presenting cells in response to the formulation's antigenicity. […] This indicates minimal if not negligible immunogenicity of the formulation. […] Likewise, cytotoxicity of blank nanoparticles was assessed by MTT (3-(4,5-Dimethylthiazol-2-yl)-2,5-diphenyltetrazolium bromide) assay in a macrophage (RAW 246.7) cell line.
The cytotoxicity of blank and peptide loaded nanoparticles was assessed by the MTT (3-(4,5-Dimethylthiazol-2-yl)-2,5-diphenyltetrazolium bromide) assay. […] Absorbance in each well was measured at 570 nm in a microtiter plate reader. The formation of a colored product quantified by measuring absorbance can be correlated to the percentage of living cells.

proportion of OT in CSF versus the total in CSF plus plasma [3]: 4.2%
Molecule: CC[C@H](C)[C@@H]1NC(=O)[C@H](Cc2ccc(O)cc2)NC(=O)[C@@H](N)CSSC[C@@H](C(=O)N2CCC[C@H]2C(=O)N[C@@H](CC(C)C)C(=O)NCC(N)=O)NC(=O)[C@H](CC(N)=O)NC(=O)[C@H](CCC(N)=O)NC1=O [OT, oxytocin]
half-life in the blood [1]: on the order of minutes
calculated maximum transfer of a dose to the brain [2]: 0.005%

transport across the barrier, presence versus absence of the cell barrier (BEND3 cells): significant reduction
Molecule: Cc1cc(-c2ccc(/N=N/c3c(S(=O)(=O)O)cc4cc(S(=O)(=O)O)cc(N)c4c3O)c(C)c2)ccc1/N=N/c1c(S(=O)(=O)O)cc2cc(S(=O)(=O)O)cc(N)c2c1O [trypan blue]

Molecule: benzalkonium chloride
cell viability ([4]; after 24 hours): 21.44%
cell viability ([4]; after 48 hours): 20.089%

— patent publication US20200016088A1, “NANOFORMULATIONS OF NEUROPEPTIDES AND METHOD OF MAKING SAME” (THE CORPORATION OF MERCER UNIVERSITY, priority 2018, published 2020)
